Results from ChEMBL document CHEMBL1158194, “Phytogrowth-inhibitory compounds from Malmea depressa” (J Nat Prod, 1996).
In brackets after ≈: the same amount, converted by molar mass.

What was measured:
A549 = test: Cytotoxicity against human A549 cells; type: functional; conditions: read-out: ED50 (the source's name)
[1] = test system: Amaranthus hypochondriacus; test: Inhibition of phytogrowth in Amaranthus hypochondriacus seedlings measured after 24 hrs incubation under dark condition; type: functional, organism-based
HT-29 = test: Cytotoxicity against human HT29 cells; type: functional; conditions: read-out: ED50 (the source's name)
[2] = Toxicity in brine shrimp larvae; type: organism-based; conditions: artemia, in vivo
MCF7 = test: Cytotoxicity against human MCF7 cells; type: functional; conditions: read-out: ED50 (the source's name)
Echinochloa crus-galli = test: Inhibition of phytogrowth in Echinochloa crus-galli seedlings measured after 48 hrs incubation under dark condition; type: functional, organism-based
Fusarium oxysporum = test: Antifungal activity against Fusarium oxysporum; type: functional
[3] = test system: Trichophyton mentagrophytes; test: Antifungal activity against Trichophyton mentagrophytes ATCC 9129 by agar dilution method; type: functional
Aspergillus niger = test: Antifungal activity against Aspergillus niger ATCC 16888 by agar dilution method; type: functional

Row | SMILES | EC50 (A549) | IC50 [1] | EC50 (HT-29) | EC50 (MCF7) | IC50 (Echinochloa crus-galli) | MIC [3] | also measured
1 | C=CCc1cc(OC)c(OC)c(OC)c1OC | 29 µg/mL (≈ 122 µM) | 43 µg/mL (≈ 180 µM) | 71 µg/mL (≈ 298 µM) | 46 µg/mL (≈ 193 µM) | 810 µg/mL (≈ 3400 µM) | 500 µg/mL (≈ 2100 µM) | LC50 [2]: 144 µg/mL (≈ 604 µM); MIC (Fusarium oxysporum): 250 µg/mL (≈ 1050 µM)
2 | COc1cc(C=O)c(OC)c(OC)c1OC | – | 822 µg/mL (≈ 3630 µM) | – | – | > 1000 µg/mL | – | –
3 | C[C@@H]1[C@H](O)[C@@H](C)/C=C/C=C/C=C/C=C/C=C/C=C/C=C/[C@H](O[C@@H]2O[C@H](C)[C@@H](O)[C@H](N)[C@@H]2O)C[C@@H]2O[C@](O)(C[C@@H](O)C[C@@H](O)[C@H](O)CC[C@@H](O)C[C@@H](O)CC(=O)O[C@H]1C)C[C@H](O)[C@H]2C(=O)O [AMPHOTERICIN B] | – | – | – | – | – | – | MIC (Aspergillus niger): 3 µg/mL (≈ 3.25 µM)
4 | COc1cccc2c1C(=O)c1c(O)c3c(c(O)c1C2=O)C[C@@](O)(C(=O)CO)C[C@@H]3O[C@H]1C[C@H](N)[C@H](O)[C@H](C)O1 [DOXORUBICIN] | 0.03 µg/mL (≈ 0.0552 µM) | – | 0.007 µg/mL (≈ 0.0129 µM) | 0.3 µg/mL (≈ 0.552 µM) | – | – | –
5 | COC1=CC(=O)C[C@@H](C)[C@]12Oc1c(Cl)c(OC)cc(OC)c1C2=O [GRISEOFULVIN] | – | – | – | – | – | 2.6 µg/mL (≈ 7.37 µM) | –
6 | CCCCC[C@H]1CCCCCCCCCC(=O)O[C@H]2[C@H](O)[C@@H](CO)O[C@@H](O[C@H]3[C@H](O1)O[C@H](C)[C@H](O)[C@@H]3O)[C@@H]2O[C@@H]1O[C@@H](C)[C@H](OC(=O)[C@@H](C)CC)[C@@H](O[C@@H]2O[C@@H](C)[C@H](O)[C@@H](O)[C@H]2O)[C@H]1OC(=O)[C@@H](C)CC [TRICOLORIN A] | – | – | – | – | 12 µg/mL (≈ 11.7 µM) | – | –
